Results: patent US7772227B2, “Tricyclic 1-[(indol-3-yl)carbonyl]piperazine derivatives as cannabinoid CB1 receptor agonists” (N.V. Organon, priority 2003, dated 2010)
Where a name gives a salt, the structure may show the parent alone. Read-outs that look alike come from different tables or passages of the source.

Tests used:
mice = assay: Tail flick latency in mice; format: in vivo; conditions: Mus musculus, iv, administered intravenously, ED50 calculated at Tmax, read-out: ED50 (increase of tail flick latency)
Method: Mice were trained to sit still in a tail flick apparatus (Ugo Basile, Italy) whilst tail flick latency was measured. The tail was exposed to a focused beam of radiant heat at a point approximately 2.5 cm from the tip. Tail flick latency was defined as the interval between the appliance of the thermal stimulus and withdrawal of the tail. A 12 second cut-off was employed to prevent tissue damage. Four groups of eight mice were treated with vehicle or one of three doses of the test compound, administered intravenously (vehicle: saline 9 g/l; injection volume 10 ml/kg). Tail flick latency was measured before administration of the test compound and at regular intervals (typically 20, 40 and 60 minutes) after compound administration. The ED50 was calculated at Tmax.

human CB1 receptor = target: T1, human CB1 receptor (Homo sapiens, UniProt P21554); assay: Efficacy and potency at the human CB1 receptor expressed in CHO cells (luciferase reporter gene); format: cell-based; conditions: 5 h incubation at 37° C.
T1 construct: expressed in transfected cells; host or cells: Chinese Hamster Ovary (CHO) cells
Method: Methods to determine receptor binding as well as in vitro biological activity of cannabinoid receptor modulators are well known in the art. In general, expressed receptor is contacted with the compound to be tested and binding or stimulation or inhibition of a functional response is measured.
Chinese Hamster Ovary (CHO) cells expressing the human CB1 receptor and a luciferase reporter gene were suspended in phenol red/serum free DMEM/F-12 nut mix containing penicillin/streptomycin (50 U/50 μg/ml) and fungizone (1 μg/ml) and seeded into 96 well plates at a density of 3×10^4 cells per well (100 μl final volume). Cells were incubated overnight (approx. 18 h at 37° C., 5% CO2/95% air) prior to assay.
The test compound (10 mM solution in dimethylsulfoxide) was diluted in F12 Nut Mix to give a range of stock solutions from 0.11 mM to 0.11 nM. The stock solutions (10 μl) were added directly to the relevant wells. The plates were incubated at 37° C. for 5 h to allow agonist-induced expression of the luciferase enzyme. Under subdued light, LucLite substrate (Packard; reconstituted as per manufacturer's instructions; 100 μl) was added to each well. Plates were covered with Top Seal and then incubated at room temperature for 5 minutes before counting on the Packard TopCount (single photon counting, 0.01 minute count time, 5 minute count delay).
A “best-fit” curve was fitted by a minimum sum of squares method to the plot of counts per second (CPS) against compound concentration (M) to obtain an EC50 value.

[1] = CHO cells expressing human CB1 receptor and luciferase reporter gene
[2] = CHO cells expressing human CB1 receptor and luciferase reporter gene, read-out: pEC50 (converted)

T1 sequence (P21554 whole entry): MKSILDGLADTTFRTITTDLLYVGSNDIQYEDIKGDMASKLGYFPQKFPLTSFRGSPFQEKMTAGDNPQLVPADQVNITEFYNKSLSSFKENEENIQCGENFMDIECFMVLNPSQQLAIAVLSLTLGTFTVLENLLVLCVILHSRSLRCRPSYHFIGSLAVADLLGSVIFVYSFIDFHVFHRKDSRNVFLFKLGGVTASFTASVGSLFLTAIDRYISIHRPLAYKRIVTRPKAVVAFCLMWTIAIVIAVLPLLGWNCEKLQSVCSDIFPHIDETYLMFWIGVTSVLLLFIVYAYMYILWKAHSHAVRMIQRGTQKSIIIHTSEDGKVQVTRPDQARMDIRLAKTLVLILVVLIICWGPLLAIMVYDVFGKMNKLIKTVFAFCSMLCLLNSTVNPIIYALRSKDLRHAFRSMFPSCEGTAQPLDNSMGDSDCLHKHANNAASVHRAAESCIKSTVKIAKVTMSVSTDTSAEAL

| Compound | ED50 (mice) | pEC50 (human CB1 receptor; [1]) | EC50 (human CB1 receptor; [2]) | also measured |
| --- | --- | --- | --- | --- |
| C[C@H]1CN(C(=O)c2cn3c4c(cccc24)OC[C@H]3C2CCCCC2)CCN1C.Cl [Example 4, (R)-3-Cyclohexyl-2,3-dihydro-6-[(S)-3,4-dimethylpiperazin-1-ylcarbonyl]pyrrolo[1,2,3-de]-1,4-benzoxazine hydrochloride salt] | < 5 µmol/kg | 7.8 |  |  |
| CCN1CCN(C(=O)c2cn3c4c(cccc24)CCC3C2CCCCC2)CC1 (single isomer, unassigned; (-)) [Example 15, (−)-(4-Cyclohexyl-5,6-dihydro-1-(4-ethylpiperazin-1-ylcarbonyl)-4H-pyrrolo[3,2,1-ij]quinoline hydrochloride salt] | < 5 µmol/kg |  | 31.6 nM |  |
| CN1CCN(C(=O)c2cn3c4c(cccc24)CCC3C2CCCCC2)CC1 (single isomer, unassigned; (+)) [Example 14, (+)-(4-Cyclohexyl-5,6-dihydro-1-(4-methylpiperazin-1-ylcarbonyl)-4H-pyrrolo[3,2,1-ij]-quinoline hydrochloride salt] | < 5 µmol/kg |  | 79.4 nM |  |
| CCN1[C@H](C)CN(C(=O)c2cn3c4c(cccc24)OC[C@H]3C2CCCCC2)C[C@@H]1C.Cl [Example 8, (R)-3-Cyclohexyl-2,3-dihydro-6-[(cis)-3,5-dimethyl-4-ethylpiperazin-1-ylcarbonyl]-pyrrolo[1,2,3-de]-1,4-benzoxazine hydrochloride salt] |  | 8.4 |  |  |
| C[C@@H]1CN(C(=O)c2cn3c4c(cccc24)OC[C@H]3C2CCCCC2)C[C@H](C)N1CCO.Cl [Example 9, (R)-3-Cyclohexyl-2,3-dihydro-6-[(cis)-3,5-dimethyl-4-(2-hydroxyethyl)piperazin-1-ylcarbonyl]pyrrolo[1,2,3-de]-1,4-benzoxazine hydrochloride salt] |  | 8.2 |  |  |
| CN1CCN(C(=O)c2cn3c4c(cccc24)OC[C@H]3C2CCCCC2)CC1.Cl [Example 5C, (R)-3-Cyclohexyl-2,3-dihydro-6-[4-methylpirerazin-1-ylcarbonyl]pyrrolo[1,2,3-de]-1,4-benzoxazine hydrochloride salt] |  | 7.0 |  |  |
| CN1CCN(C(=O)c2cn3c4c(cccc24)CCC3C2CCCCC2)CC1 (single isomer, unassigned; (-)) [Example 16, (−)-(4-Cyclohexyl-5,6-dihydro-1-(4-methylpiperazin-1-ylcarbonyl)-4H-pyrrolo[3,2,1-ij]-quinoline hydrochloride salt] |  |  | 25.1 nM |  |
| CCN1CCN(C(=O)c2cn3c4c(cccc24)CCC3C2CCCC2)CC1 (single isomer, unassigned; (-)) [Example 12B, (−)-4-Cylclopentyl-5,6-dihydro-1-(4-ethylpiperazin-1-ylcarbonyl)-4H-pyrrolo[3,2,1-ij]quinoline hydrochloride salt] |  |  | 39.8 nM |  |
| COCCN1[C@H](C)CN(C(=O)c2cn3c4c(cccc24)OC[C@H]3C2CCCCC2)C[C@@H]1C.Cl [Example 10, (R)-3-Cyclohexyl-2,3-dihydro-6-[(cis)-3,5-dimethyl-4-(2-methoxyethyl)piperazin-1-yl-carbonyl]pyrrolo[1,2,3-de]-1,4-benzoxazine hydrochloride salt] |  | 8.3 |  |  |
| CCN1CCN(C(=O)c2cn3c4c(cccc24)OC[C@H]3C2CCCCC2)CC1.Cl [Example 1, (R)-3-Cyclohexyl-2,3-dihydro-6-(4-ethylpiperazin-1-ylcarbonyl)pyrrolo[1,2,3-de]-1,4-benzoxazine hydrochloride salt] |  | 7.5 |  |  |
| C[C@@H]1CN(C(=O)c2cn3c4c(cccc24)OC[C@H]3C2CCCCC2)C[C@H](C)N1C.Cl [Example 7, (R)-3-Cyclohexyl-2,3-dihydro-6-[(cis)-3,4,5-trimethylpiperazin-1-ylcarbonyl]pyrrolo[1,2,3-de]-1,4-benzoxazine hydrochloride salt] |  | 8.2 |  |  |
| O=C(c1cn2c3c(cccc13)OC[C@H]2C1CCCCC1)N1CCN2CCCC[C@H]2C1 [Example 2, (R)-3-Cyclohexyl-2,3-dihydro-6-[(S)-octahydro-2H-pyrido[1,2-a]pyrazin-2-ylcarbonyl]-pyrrolo[1,2,3-de]-1,4-benzoxazine hydrochloride salt] | < 5 µmol/kg |  |  | EC50 (human CB1 receptor; pEC50, CHO cells expressing human CB1 receptor and luciferase reporter gene): 10 nM |
| CCN1CCN(C(=O)c2cn3c4c(cccc24)CCC3C2CCCCC2)CC1 (single isomer, unassigned; (+)) [Example 13, (+)-4-Cyclohexyl-5,6-dihydro-1-(4-ethylpiperazin-1-ylcarbonyl)-4H-pyrrolo[3,2,1-ij]-quinoline hydrochloride salt] |  |  | 50.1 nM |  |
